Assay results as given in PMC6271978, “1H-2,3-Dihydroperimidine Derivatives: A New Class of Potent Protein Tyrosine Phosphatase 1B Inhibitors” (Molecules, 2013).

Experiments:
[1] = target: T1, PTP1B (GST-PTP1B) (Homo sapiens, UniProt P18031); assay: PTP1B inhibition, colorimetric pNPP assay; type: biochemical; details: for inhibition at 20 µg/mL: PTP1B, compound at 20 μg/mL; for inhibition at 20 µg/mL / IC50: pNPP substrate; for PTP1B inhibitory activity (in words): pNPP assay, tested at 20 μg/mL; for IC50: means ± SD of three replications, OA/PC = oleanolic acid positive control
T1 sequence (P18031 1-435): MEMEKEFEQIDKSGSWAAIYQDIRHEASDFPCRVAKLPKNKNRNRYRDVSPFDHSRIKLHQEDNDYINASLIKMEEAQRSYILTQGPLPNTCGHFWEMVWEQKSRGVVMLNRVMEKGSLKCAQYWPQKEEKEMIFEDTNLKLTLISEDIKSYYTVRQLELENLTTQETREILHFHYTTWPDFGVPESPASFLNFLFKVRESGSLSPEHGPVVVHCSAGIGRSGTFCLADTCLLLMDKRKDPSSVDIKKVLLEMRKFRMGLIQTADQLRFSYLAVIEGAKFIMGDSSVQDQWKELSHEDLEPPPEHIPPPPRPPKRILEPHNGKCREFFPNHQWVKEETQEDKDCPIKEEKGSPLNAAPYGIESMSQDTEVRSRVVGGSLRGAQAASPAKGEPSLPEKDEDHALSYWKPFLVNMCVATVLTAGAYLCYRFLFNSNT

For `O=C(O)CCC(=O)Nc1ccc(C2Nc3cccc4cccc(c34)N2)cc1` [Compound 32], the inhibition at 20 µg/mL [1] was 29.9% and the “PTP1B inhibitory activity (in words)” value [1] was “no activity”.

In the case of `CCOC(=O)CCCOc1ccc(C2Nc3cccc4cccc(c34)N2)cc1` [Compound 21], the melting point is reported as 76.2 to 78.6 °C, the inhibition at 20 µg/mL [1] is reported as 7.45% and the “PTP1B inhibitory activity (in words)” value [1] is reported as “did not show inhibitory activity”.

With `O=C(O)CCCCOc1ccc(C2Nc3cccc4cccc(c34)N2)cc1` [Compound 25, 5-[4-(2,3-Dihydro-1H-perimidin-2-yl)phenoxy]pentanoic acid] the melting point was 165.9 to 167.8 °C, the inhibition at 20 µg/mL [1] was 32.1% and the “PTP1B inhibitory activity (in words)” value [1] was “no inhibitory activity”.

A melting point of 166.4 to 171.9 °C and an inhibition at 20 µg/mL [1] of 23.8% were found for `Nc1ccc(C2Nc3cccc4cccc(c34)N2)cc1` [Compound 8] in this work.

A melting point of 90.8 to 91.9 °C, an inhibition at 20 µg/mL [1] of 95.3% and an IC50 [1] of 7.82 ± 0.27 µM were found for `O=C(O)CCCCCNC(=O)c1ccc(C2Nc3cccc4cccc(c34)N2)cc1` [Compound 19, 6-(4-(2,3-Dihydro-1H-perimidin-2-yl)benzamido)hexanoic acid] in this work.

A melting point of 128.6 to 132.5 °C and an inhibition at 20 µg/mL [1] of 6.83% were found for `CCOC(=O)CCCNC(=O)c1ccc(C2Nc3cccc4cccc(c34)N2)cc1` [Compound 12, Ethyl 4-(4-(2,3-dihydro-1H-perimidin-2-yl)benzamido)butanoate] in this work.

A melting point of 102.8 to 107.4 °C, an inhibition at 20 µg/mL [1] of 94.8% and an IC50 [1] of 5.53 ± 0.54 µM were found for `O=C(O)CCCCNC(=O)c1ccc(C2Nc3cccc4cccc(c34)N2)cc1` [Compound 18, 5-(4-(2,3-Dihydro-1H-perimidin-2-yl)benzamido)pentanoic acid] in this work.

An inhibition at 20 µg/mL [1] of 6.4% was found for `COC(=O)c1ccc(C2Nc3cccc4cccc(c34)N2)nc1` [Compound 40] in this work.

An inhibition at 20 µg/mL [1] of 7.18% was found for `Oc1ccc(C2Nc3cccc4cccc(c34)N2)cc1` [Compound 5, 4-(2,3-Dihydro-1H-perimidin-2-yl)phenol] in this work.

A melting point of 204.4 to 208.4 °C and an inhibition at 20 µg/mL [1] of 31.6% were found for `N#Cc1cc(C2Nc3cccc4cccc(c34)N2)ccc1F` [Compound 6, 5-(2,3-Dihydro-1H-perimidin-2-yl)-2-fluorobenzonitrile] in this work.

A melting point of 221.3 to 223.4 °C, an inhibition at 20 µg/mL [1] of 96.8% and an IC50 [1] of 6.45 ± 0.42 µM were found for `O=C(O)CC(=O)Nc1ccc(C2Nc3cccc4cccc(c34)N2)cc1` [Compound 31, 3-{[4-(2,3-Dihydro-1H-perimidin-2-yl)phenyl]amino}-3-oxopropanoic acid] in this work.

A melting point of 99.7 to 103.3 °C, an inhibition at 20 µg/mL [1] of 73.1% and an IC50 [1] of 22.2 ± 1.6 µM were found for `O=C(O)CCCNC(=O)c1ccc(C2Nc3cccc4cccc(c34)N2)cc1` [Compound 17, 4-(4-(2,3-Dihydro-1H-perimidin-2-yl)benzamido)butanoic acid] in this work.

A melting point of 100.1 to 105.4 °C and an inhibition at 20 µg/mL [1] of 4.67% were found for `COC(=O)CCCNC(=O)c1ccc(C2Nc3cccc4cccc(c34)N2)nc1` [Compound 43, Methyl 4-[6-(2,3-dihydro-1H-perimidin-2-yl)nicotinamido]butanoate] in this work.

An inhibition at 20 µg/mL [1] of 15.3% was found for `COC(=O)c1ccc(C2Nc3cccc4cccc(c34)N2)cc1` [Compound 9] in this work.

A melting point greater than 265 °C, an inhibition at 20 µg/mL [1] of 95.1% and an IC50 [1] of 6.91 ± 1.17 µM were found for `O=C(O)CCCC(=O)Nc1ccc(C2Nc3cccc4cccc(c34)N2)cc1` [Compound 33, 5-{[4-(2,3-Dihydro-1H-perimidin-2-yl)phenyl]amino}-5-oxopentanoic acid] in this work.

A melting point of 165.8 to 170.9 °C and an inhibition at 20 µg/mL [1] of 29.7% were found for `CCOC(=O)CCC(=O)Nc1ccc(C2Nc3cccc4cccc(c34)N2)cc1` [Compound 28] in this work.

A melting point of 119.3 to 123.8 °C and an inhibition at 20 µg/mL [1] of 10.8% were found for `CCOC(=O)CCCCCNC(=O)c1ccc(C2Nc3cccc4cccc(c34)N2)nc1` [Compound 45, Ethyl 6-[6-(2,3-dihydro-1H-perimidin-2-yl)nicotinamido]hexanoate] in this work.

For `CCOC(=O)CCCCOc1ccc(C2Nc3cccc4cccc(c34)N2)cc1` [Compound 22, Ethyl 5-[4-(2,3-dihydro-1H-perimidin-2-yl)phenoxy]pentanoate], the melting point was 93.8 to 96.4 °C, the inhibition at 20 µg/mL [1] was 2.04% and the “PTP1B inhibitory activity (in words)” value [1] was “did not show inhibitory activity”.

A melting point of 183.6 to 184.7 °C and an inhibition at 20 µg/mL [1] of 42.1% were found for `COC(=O)CNC(=O)c1ccc(C2Nc3cccc4cccc(c34)N2)nc1` [Compound 42] in this work.

A melting point of 193.3 to 198.7 °C and an inhibition at 20 µg/mL [1] of 4.81% were found for `COC(=O)CNC(=O)c1ccc(C2Nc3cccc4cccc(c34)N2)cc1` [Compound 11] in this work.

A melting point of 171.3 to 176 °C and an inhibition at 20 µg/mL [1] of 26.2% were found for `COC(=O)C1CCCN1C(=O)c1ccc(C2Nc3cccc4cccc(c34)N2)cc1` (stereo not shown) [Compound 10, Methyl 1-(4-(2,3-dihydro-1H-perimidin-2-yl)benzoyl)pyrrolidine-2-carboxylate] in this work.

A melting point of 141.8 to 143.1 °C and an inhibition at 20 µg/mL [1] of 28.5% were found for `CCOC(=O)CCCCNC(=O)c1ccc(C2Nc3cccc4cccc(c34)N2)cc1` [Compound 13, Ethyl 5-(4-(2,3-dihydro-1H-perimidin-2-yl)benzamido)pentanoate] in this work.

In the case of `O=C(O)CCCOc1ccc(C2Nc3cccc4cccc(c34)N2)cc1` [Compound 24], the melting point is reported as 126.3 to 130.9 °C, the inhibition at 20 µg/mL [1] is reported as 10.5% and the “PTP1B inhibitory activity (in words)” value [1] is reported as “no inhibitory activity”.

A melting point of 109.4 to 113.5 °C and an inhibition at 20 µg/mL [1] of 4.74% were found for `CCOC(=O)CCCCNC(=O)c1ccc(C2Nc3cccc4cccc(c34)N2)nc1` [Compound 44, Ethyl 5-[6-(2,3-dihydro-1H-perimidin-2-yl)nicotinamido]pentanoate] in this work.

A melting point of 132.3 to 135.5 °C, an inhibition at 20 µg/mL [1] of 91.8% and an IC50 [1] of 1.27 ± 0.06 µM were found for `CCOC(=O)C(=O)Nc1ccc(C2Nc3cccc4cccc(c34)N2)cc1` [Compound 26, Ethyl 2-{[4-(2,3-dihydro-1H-perimidin-2-yl)phenyl]amino}-2-oxoacetate] in this work.

In the case of `CC(C)(C)OC(=O)NCCC(=O)Nc1ccc(C2Nc3cccc4cccc(c34)N2)cc1` [Compound 34], the melting point is reported as 111.1 to 113.7 °C, the inhibition at 20 µg/mL [1] is reported as 12.6% and the “PTP1B inhibitory activity (in words)” value [1] is reported as “no inhibitory activity”.

For `O=C(O)C(=O)Nc1ccc(C2Nc3cccc4cccc(c34)N2)cc1` [Compound 30, 2-{[4-(2,3-Dihydro-1H-perimidin-2-yl)phenyl]amino}-2-oxoacetic acid], the melting point was greater than 265 °C, the inhibition at 20 µg/mL [1] was 0.51% and the “PTP1B inhibitory activity (in words)” value [1] was “no activity”.

An inhibition at 20 µg/mL [1] of 37% was found for `Brc1ccc(C2Nc3cccc4cccc(c34)N2)cc1` [Compound 2] in this work.

A melting point of 117.1 to 120.3 °C, an inhibition at 20 µg/mL [1] of 91.5% and an IC50 [1] of 3.56 ± 0.13 µM were found for `O=C(O)CCCCNC(=O)c1ccc(C2Nc3cccc4cccc(c34)N2)nc1` [Compound 48, 5-[6-(2,3-Dihydro-1H-perimidin-2-yl)nicotinamido]pentanoic acid] in this work.

A melting point of 233.1 to 234.3 °C, an inhibition at 20 µg/mL [1] of 84.2% and an IC50 [1] of 20.2 ± 1.94 µM were found for `O=C(O)C1CCCN1C(=O)c1ccc(C2Nc3cccc4cccc(c34)N2)cc1` (stereo not shown) [Compound 15, 1-(4-(2,3-Dihydro-1H-perimidin-2-yl)benzoyl)pyrrolidine-2-carboxylic acid] in this work.

A melting point of 95.3 to 99 °C, an inhibition at 20 µg/mL [1] of 98.5% and an IC50 [1] of 15.2 ± 1.41 µM were found for `O=C(O)CCCNC(=O)c1ccc(C2Nc3cccc4cccc(c34)N2)nc1` [Compound 47, 4-[6-(2,3-Dihydro-1H-perimidin-2-yl)nicotinamido]butanoic acid] in this work.

A melting point of 100.7 to 101.3 °C, an inhibition at 20 µg/mL [1] of 96.6% and an IC50 [1] of 10.8 ± 0.69 µM were found for `O=C(O)c1ccc(C2Nc3cccc4cccc(c34)N2)nc1` [Compound 41] in this work.

In the case of `NCCC(=O)Nc1ccc(C2Nc3cccc4cccc(c34)N2)cc1` [Compound 35], the melting point is reported as 239.7 to 241.2 °C, the inhibition at 20 µg/mL [1] is reported as 0.29% and the “PTP1B inhibitory activity (in words)” value [1] is reported as “no inhibitory activity”.

A melting point greater than 265 °C, an inhibition at 20 µg/mL [1] of 98.4% and an IC50 [1] of 5.88 ± 0.25 µM were found for `O=C(O)COc1ccc(C2Nc3cccc4cccc(c34)N2)cc1` [Compound 23, 2-[4-(2,3-Dihydro-1H-perimidin-2-yl)phenoxy]acetic acid] in this work.

An inhibition at 20 µg/mL [1] of 17.5% was found for `Brc1ccccc1C1Nc2cccc3cccc(c23)N1` [Compound 4, 2-(2-Bromophenyl)-2,3-dihydro-1H-perimidine] in this work.

A melting point of 139.9 to 142.5 °C and an inhibition at 20 µg/mL [1] of 2.92% were found for `CCOC(=O)CCCC(=O)Nc1ccc(C2Nc3cccc4cccc(c34)N2)cc1` [Compound 29, Ethyl 5-{[4-(2,3-dihydro-1H-perimidin-2-yl]phenyl)amino}-5-oxopentanoate] in this work.

A melting point of 145.8 to 147.4 °C and an inhibition at 20 µg/mL [1] of 35.6% were found for `CCOC(=O)CCCCCNC(=O)c1ccc(C2Nc3cccc4cccc(c34)N2)cc1` [Compound 14, Ethyl 6-(4-(2,3-dihydro-1H-perimidin-2-yl)benzamido)hexanoate] in this work.

A melting point of 161.7 to 163.3 °C and an inhibition at 20 µg/mL [1] of 42.5% were found for `Brc1cccc(C2Nc3cccc4cccc(c34)N2)c1` [Compound 3, 2-(3-Bromophenyl)-2,3-dihydro-1H-perimidine] in this work.

A melting point of 85.4 to 90.3 °C, an inhibition at 20 µg/mL [1] of 90% and an IC50 [1] of 27.8 ± 5.45 µM were found for `O=C(O)CNC(=O)c1ccc(C2Nc3cccc4cccc(c34)N2)cc1` [Compound 16] in this work.

A melting point of 158.2 to 160.7 °C and an inhibition at 20 µg/mL [1] of 1.68% were found for `CCOC(=O)CC(=O)Nc1ccc(C2Nc3cccc4cccc(c34)N2)cc1` [Compound 27, Ethyl 3-{[4-(2,3-dihydro-1H-perimidin-2-yl)phenyl]amino}-3-oxopropanoate] in this work.
